pIC50: −log10 of the molar value. Where a name gives a salt, the structure may show the parent alone.
The molecules below were run against T1, Na^+ /H^+ exchanger of rabbit erythrocytes (Oryctolagus cuniculus, UniProt P23791) (assay: Inhibition of the Na^+ /H^+ exchanger of rabbit erythrocytes (amiloride-sensitive Na^+ influx, flame photometry)). Settings: hyperosmolar salt-sucrose medium, pH 7.4, 37° C., sodium influx by flame photometry.
T1 construct: determine the Na^+ influx into the erythrocytes via Na^+ /H^+ exchange by flame photometry; endogenous in cells; host or cells: erythrocytes from ear-artery blood of cholesterol-fed White New Zealand rabbits (animals from Ivanovas)
T1 sequence (P23791 whole entry): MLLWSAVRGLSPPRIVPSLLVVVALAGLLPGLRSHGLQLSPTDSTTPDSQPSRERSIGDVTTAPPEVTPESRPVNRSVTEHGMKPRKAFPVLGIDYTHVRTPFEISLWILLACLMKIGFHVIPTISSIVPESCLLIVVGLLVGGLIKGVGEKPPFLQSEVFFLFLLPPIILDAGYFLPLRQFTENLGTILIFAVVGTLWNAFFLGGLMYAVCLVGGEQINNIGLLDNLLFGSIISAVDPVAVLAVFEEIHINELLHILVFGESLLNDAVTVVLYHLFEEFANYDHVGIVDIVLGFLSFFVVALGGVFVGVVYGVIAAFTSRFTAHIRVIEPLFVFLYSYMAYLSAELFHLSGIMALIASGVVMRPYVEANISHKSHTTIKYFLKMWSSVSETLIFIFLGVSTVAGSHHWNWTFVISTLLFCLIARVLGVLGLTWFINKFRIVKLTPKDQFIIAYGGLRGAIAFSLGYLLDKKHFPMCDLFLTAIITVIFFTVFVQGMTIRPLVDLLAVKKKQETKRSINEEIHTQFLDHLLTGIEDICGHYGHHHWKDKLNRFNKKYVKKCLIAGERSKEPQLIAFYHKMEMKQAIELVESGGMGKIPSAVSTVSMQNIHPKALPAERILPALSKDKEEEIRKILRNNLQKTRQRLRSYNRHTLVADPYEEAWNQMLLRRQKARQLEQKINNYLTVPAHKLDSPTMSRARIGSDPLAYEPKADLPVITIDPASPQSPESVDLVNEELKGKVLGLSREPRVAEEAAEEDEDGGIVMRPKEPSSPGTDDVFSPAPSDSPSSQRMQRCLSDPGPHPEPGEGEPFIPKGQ
Type: cell-based, rabbit (White New Zealand)
Description: Inhibition of the Na^+ /H^+ exchanger of rabbit erythrocytes
White New Zealand rabbits (Ivanovas) received a standard diet with 2% cholesterol for six weeks in order to activate Na^+ /H^+ exchange and thus to be able to determine the Na^+ influx into the erythrocytes via Na^+ /H^+ exchange by flame photometry. The blood was taken from the ear arteries and rendered incoagulable by means of 25 IU of potassium heparin. A part of each sample was used for the duplicate determination of the hematocrit by centrifugation. Aliquots of 100 μl in each case were used to measure the Na^+ starting content of the erythrocytes.
In order to determine the amiloride-sensitive sodium influx, 100 μl of each blood sample were incubated in each case in 5 ml of a hyperosmolar salt-sucrose medium (mmol/l: 140 NaCl, 3 KCl, 150 sucrose, 0.1 ouabain, 20 tris-hydroxymethylaminomethane) at pH 7.4 and 37° C. The erythrocytes were then washed three times with ice-cold MgCl2 ouabain solution (mmol/l: 112 MgCl2, 0.1 ouabain) and hemolyzed in 2.0 ml of distilled water. The intracellular sodium content was determined by flame photometry.
The net Na^+ influx was calculated from the difference between sodium starting values and the sodium content of the erythrocytes after incubation. The amiloride-inhibitable sodium influx resulted from the difference between the sodium content of the erythrocytes after incubation with and without amiloride 3×10^-4 mol/l. This procedure was also used in the case of the compounds according to the invention.

Point of comparison: `CN=S(=O)(NC)c1cc(C(=O)N=C(N)N)ccc1C(C)C` (stereo not shown) [Example 4, 2-isopropyl-5-guanidinocarbonylbenzenesulfonic acid N,N'-dimethylimidamide], pIC50 2.22. Against it:
- CCN=S(=O)(c1ccc(F)cc1)N(CC)c1ccc(C(=O)N=C(N)N)cc1S(C)(=O)=O (stereo not shown) [Example 1, 4-(4-Fluorobenzene-N,N'-diethylsulfimidamoyl)-3-methyl-sulfonylbenzoylguanidine, dihydrochloride] — 0.95 log units higher, 3.17
- CCN=S(=O)(c1ccc(F)cc1)N(CC)c1ccc(C(=O)N=C(N)N)cc1C(F)(F)F (stereo not shown) [Example 2, 4-(4-Fluorobenzene-N,N'-diethylsulfimidamoyl)-3-trifluoro-methylbenzoylguanidine, dihydrochloride] — 2.06 log units higher, 4.28
- CS(=O)(=O)c1cc(C(=O)N=C(N)N)ccc1NS(=N)(=O)c1ccc(F)cc1 (stereo not shown) [Example 3, 3-Methylsulfonyl-4-(4-fluorobenzenesulfimidamoyl)benzoylguanidine] — 0.48 log units higher, 2.70
